Data as given in ChEMBL document CHEMBL1136564, “Sordaricin antifungal agents” (2003).
Converted amounts (≈) assume the structure as drawn.

Legend:
Assay type in all cases: functional
Candida albicans = experiment: Minimum inhibitory concentration to inhibit 90 to 100% visible growth of Candida albicans
Nakaseomyces glabratus = experiment: Minimum inhibitory concentration required to inhibit 90 to 100% visible growth of Candida glabrata
[1] = In vitro therapeutic index (calculated as CC50/MIC (Candida albicans)).
HEp-2 = experiment: In vitro cytotoxic concentration against Hep2 cells.; details: Homo sapiens

MIC (Candida albicans) | MIC (Nakaseomyces glabratus) | Compound | Therapeutic index [1] | CC50 (HEp-2)
8 µg/mL (≈ 16.8 µM) | > 128 µg/mL | CC(C)C1=CC2CC3(C=O)C4CC[C@@H](C)C4CC2(CCOC(=O)c2ccc(C#N)cc2)C13C(=O)O (some centres undefined) | – | –
> 128 µg/mL | > 128 µg/mL | CC(C)C1=CC2CC3(C=O)C4CC[C@@H](C)C4CC2(CCOC(=O)c2cccn2C)C13C(=O)O (some centres undefined) | – | –
0.5 µg/mL (≈ 1.01 µM) | 32 µg/mL (≈ 64.4 µM) | CC(C)C1=CC2CC3(C=O)C4CC[C@@H](C)C4CC2(CCOC(=O)CSc2ccccc2)C13C(=O)O (some centres undefined) | – | –
2 µg/mL (≈ 4.03 µM) | > 128 µg/mL | CSc1ccc(C(=O)OCCC23CC4C(CC[C@H]4C)C4(C=O)CC2C=C(C(C)C)C43C(=O)O)cc1 (some centres undefined) | – | –
> 128 µg/mL | > 128 µg/mL | CC(C)C1=CC2CC3(C=O)[C@@H]4CC[C@@H](C)[C@H]4CC2(C(=O)C#CC(C)(C)C)[C@]13C(=O)O | – | –
> 128 µg/mL | > 128 µg/mL | CC(C)C1=CC2CC3(C=O)C4CC[C@@H](C)C4CC2(CCOC(=O)CCc2c[nH]c4ccccc24)C13C(=O)O (some centres undefined) | – | –
1 µg/mL (≈ 2.28 µM) | 16 µg/mL (≈ 36.5 µM) | CC(C)C1=CC2CC3(C=O)[C@@H]4CC[C@@H](C)[C@H]4CC2(C(O)C#CCC2CCCC2)[C@]13C(=O)O (some centres undefined) | 14.2 | 14.2 µg/mL (≈ 32.4 µM)
4 µg/mL (≈ 6.9 µM) | > 128 µg/mL | CC(C)C1=CC2CC3(C=O)C4CC[C@@H](C)C4CC2(CCOC(=O)[C@H](NC(=O)OC(C)(C)C)c2ccccc2)C13C(=O)O (some centres undefined) | – | –
128 µg/mL (≈ 252 µM) | > 128 µg/mL | CCCOc1ccc(C(=O)OCCC23CC4C(CC[C@H]4C)C4(C=O)CC2C=C(C(C)C)C43C(=O)O)cc1 (some centres undefined) | – | –
4 µg/mL (≈ 7.97 µM) | > 128 µg/mL | CC(C)C1=CC2CC3(C=O)C4CC[C@@H](C)C4CC2(CCOC(=O)c2cnc4ccccc4c2)C13C(=O)O (some centres undefined) | – | –
> 128 µg/mL | > 128 µg/mL | CC(C)C1=CC2CC3(C=O)C4CC[C@@H](C)C4CC2(CCOC(=O)c2cc(C(=O)O)[nH]n2)C13C(=O)O (some centres undefined) | – | –
> 128 µg/mL | > 128 µg/mL | CC(C)C1=CC2CC3(C=O)C4CC[C@@H](C)C4CC2(CCO)C13C(=O)O (some centres undefined) | – | –
0.5 µg/mL (≈ 1.17 µM) | > 128 µg/mL | CC(C)CCCCC(=O)C12C[C@@H]3[C@H](C)CC[C@H]3C3(C=O)CC1C=C(C(C)C)[C@@]23C(=O)O | 5 | 2.5 µg/mL (≈ 5.83 µM)
0.5 µg/mL (≈ 0.979 µM) | > 128 µg/mL | CSc1ccc(CC(=O)OCCC23CC4C(CC[C@H]4C)C4(C=O)CC2C=C(C(C)C)C43C(=O)O)cc1 (some centres undefined) | – | –
128 µg/mL (≈ 254 µM) | > 128 µg/mL | CC(C)C1=CC2CC3(C=O)C4CC[C@@H](C)C4CC2(CCOC(=O)CNC(=O)OC(C)(C)C)C13C(=O)O (some centres undefined) | – | –
8 µg/mL (≈ 15.4 µM) | > 128 µg/mL | CC(C)C1=CC2CC3(C=O)C4CC[C@@H](C)C4CC2(CCOC(=O)Cc2csc4ccccc24)C13C(=O)O (some centres undefined) | – | –

MIC (Candida albicans) | MIC (Nakaseomyces glabratus) | Compound | Therapeutic index [1] | CC50 (HEp-2)
128 µg/mL (≈ 310 µM) | 128 µg/mL (≈ 310 µM) | CC(C)C1=CC2CC3(C=O)[C@@H]4CC[C@@H](C)[C@H]4CC2(C(O)C#CC(C)(C)C)[C@]13C(=O)O (some centres undefined) | – | –
32 µg/mL (≈ 71 µM) | > 128 µg/mL | CC(C)C1=CC2CC3(C=O)C4CC[C@@H](C)C4CC2(CCOC(=O)c2ccccc2)C13C(=O)O (some centres undefined) | – | –
> 128 µg/mL | > 128 µg/mL | CC(C)C1=CC2CC3(C=O)C4CC[C@@H](C)C4CC2(CCOC(=O)c2cnc(O)nc2O)C13C(=O)O (some centres undefined) | – | –
32 µg/mL (≈ 61.8 µM) | > 128 µg/mL | CC(C)C1=CC2CC3(C=O)C4CC[C@@H](C)C4CC2(CCOC(=O)[C@H](C)NC(=O)OC(C)(C)C)C13C(=O)O (some centres undefined) | – | –
> 128 µg/mL | 1 µg/mL (≈ 2.5 µM) | CC(C)CCC(=O)C12C[C@@H]3[C@H](C)CC[C@H]3C3(C=O)CC1C=C(C(C)C)[C@@]23C(=O)O | < 0.02 | 2.5 µg/mL (≈ 6.24 µM)
> 128 µg/mL | > 128 µg/mL | CC(C)C1=CC2CC3(C=O)C4CC[C@@H](C)C4CC2(CCOC(=O)c2ccc(S(N)(=O)=O)cc2)C13C(=O)O (some centres undefined) | – | –
> 128 µg/mL | > 128 µg/mL | CCCCCCCCCCCCCCCCC(O)C12C[C@@H]3[C@H](C)CC[C@H]3C3(C=O)CC1C=C(C(C)C)[C@@]23C(=O)O (some centres undefined) | – | –
4 µg/mL (≈ 7.54 µM) | > 128 µg/mL | CC(C)C1=CC2CC3(C=O)C4CC[C@@H](C)C4CC2(CCOC(=O)c2cncc(Br)c2)C13C(=O)O (some centres undefined) | – | –
128 µg/mL (≈ 242 µM) | > 128 µg/mL | CC(C)C1=CC2CC3(C=O)C4CC[C@@H](C)C4CC2(CCOC(=O)c2ccc([N+](=O)[O-])cc2Cl)C13C(=O)O (some centres undefined) | – | –
– | > 128 µg/mL | CC(C)C1=CC2CC3(C=O)C4CC[C@@H](C)C4CC2(CCOC(=O)Cc2c[nH]c4ccccc24)C13C(=O)O (some centres undefined) | – | –
< 0.06 µg/mL | 8 µg/mL (≈ 17.5 µM) | C=CCCCCC(=O)OCCC12CC3C(CC[C@H]3C)C3(C=O)CC1C=C(C(C)C)C32C(=O)O (some centres undefined) | – | –
0.5 µg/mL (≈ 1.17 µM) | 16 µg/mL (≈ 37.3 µM) | CC(C)=CC(=O)OCCC12CC3C(CC[C@H]3C)C3(C=O)CC1C=C(C(C)C)C32C(=O)O (some centres undefined) | – | –
4 µg/mL (≈ 8.54 µM) | > 128 µg/mL | CC(C)C1=CC2CC3(C=O)C4CC[C@@H](C)C4CC2(CCOC(=O)c2ccc(F)cc2)C13C(=O)O (some centres undefined) | – | –
2 µg/mL (≈ 4.8 µM) | 64 µg/mL (≈ 154 µM) | CC(C)CCOCCC12CC3C(CC[C@H]3C)C3(C=O)CC1C=C(C(C)C)C32C(=O)O (some centres undefined) | – | –
2 µg/mL (≈ 3.47 µM) | > 128 µg/mL | CC(C)C1=CC2CC3(C=O)C4CC[C@@H](C)C4CC2(CCOC(=O)c2ccc(I)cc2)C13C(=O)O (some centres undefined) | – | –
4 µg/mL (≈ 8.23 µM) | > 128 µg/mL | CC(C)C1=CC2CC3(C=O)C4CC[C@@H](C)C4CC2(CCOC(=O)c2ccc(Cl)nc2)C13C(=O)O (some centres undefined) | – | –
